Columns and labels:
rat = experiment: Rat formalin test (acute and chronic chemo-induced pain); assay type: in vivo
Description: FIG. 1A illustrates results from a rat formalin model used for testing acute chemo-induced pain. The single asterisk (*) applies when p is less than 0.05.
FIG. 1B illustrates results from a rat formalin model used for testing chronic chemo-induced pain. The single asterisk (*) applies when p is less than 0.05.
In FIG. 1., example 1, was active in phase I (acute phase) and phase II (chronic phase) of the rat formalin test. In animals that received 25 mg/kg, i.v, of Example 1, the number of paw flinches was reduced by nearly 40% in the first 10 minutes after administration of formalin. Paw flinches were reduced by approximately 30% over the following 50 minutes.

human FAAH = target: T1, human FAAH (Homo sapiens, UniProt O00519); experiment: Determination of FAAH activity (membrane homogenates of H4-FAAH cells, [3H]-anandamide hydrolysis); assay type: biochemical; conditions: transfected human FAAH, H4-FAAH cell membranes, 10 μM anandamide, room temperature, one hour
T1 construct: expressed in transfected cells; host or cells: H4 cells stably transfected with human FAAH (Geneticin selection); crude membrane homogenates
T1 sequence (O00519 1-579): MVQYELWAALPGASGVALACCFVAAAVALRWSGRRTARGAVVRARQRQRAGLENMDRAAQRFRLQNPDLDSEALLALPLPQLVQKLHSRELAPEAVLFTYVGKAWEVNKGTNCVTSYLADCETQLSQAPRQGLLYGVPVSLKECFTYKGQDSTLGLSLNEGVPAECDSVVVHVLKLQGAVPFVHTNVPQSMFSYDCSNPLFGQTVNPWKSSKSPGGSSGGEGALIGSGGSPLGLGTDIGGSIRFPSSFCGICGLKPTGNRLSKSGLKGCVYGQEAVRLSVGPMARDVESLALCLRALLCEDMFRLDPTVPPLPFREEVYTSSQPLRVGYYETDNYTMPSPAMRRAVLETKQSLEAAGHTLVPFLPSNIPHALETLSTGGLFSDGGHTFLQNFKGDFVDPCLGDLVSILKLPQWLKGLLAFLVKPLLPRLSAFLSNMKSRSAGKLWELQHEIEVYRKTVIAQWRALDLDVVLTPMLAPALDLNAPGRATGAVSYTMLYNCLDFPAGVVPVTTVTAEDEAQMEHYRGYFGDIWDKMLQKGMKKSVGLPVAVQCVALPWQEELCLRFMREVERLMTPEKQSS
Description: Homogenates of crude membranes were prepared from H4 cells that express transfected human FAAH (H4-FAAH cells). Briefly, cells were grown in DMEM supplemented with 10% FBS and Geneticin at a final concentration of 500 μg/ml (Gibco BRL, Rockville, Md.). Confluent cultures of H4-FAAH cells were rinsed twice with phosphate-buffered saline [138 mM NaCl, 4.1 mM KCl, 5.1 mM Na2PO4, 1.5 mM KH2PO4 (pH 7.5), 37° C.] and incubated for 5-10 min. at 4° C. in lysis buffer [1 mM sodium bicarbonate]. Cells were transferred from plates to polypropylene tubes (16×100 mm), homogenized and centrifuged at 32,000×g for 30 min. Pellets were resuspended by homogenization in lysis buffer and centrifuged at 32,000×g for 30 min. Pellets were resuspended in lysis buffer (15-20 μg protein/ml) then stored at −80° C. until needed. On the day of an experiment, membranes were diluted to 2.67 μg protein/ml in 125 mM Tris-Cl, pH 9.0
Activity of FAAH was measured using a modification of the method described by Omeir et al., 1995 (Life Sci 56:1999, 1995). Membrane homogenates (240 ng protein) were incubated at room temperature for one hour with 1.67 nM anandamide [ethanolamine 1-^3H] (American Radiolabeled Chemical Inc., St Louis, Mo.) and 10 μM anandamide (Sigma/RBI, St. Louis, Mo.) in the absence and presence of inhibitors. The reaction was stopped by the addition of 1 volume of a solution of methanol and dichloroethane (1:1). The mixture was shaken and then centrifuged at 1000×g for 15 min. to separate the aqueous and organic phases. An aliquot of the aqueous phase, containing [^3H]-ethanolamine was withdrawn and counted by scintillation spectroscopy. Data were expressed as the percentage of [^3H]-ethanolamine formed versus vehicle, after subtraction of the background radioactivity determined in the presence of 10 μM arachidonyl trifluoromethyl ketone (ATFMK), an inhibitor of FAAH. IC50 values were determined using a four-parameter logistic equation for dose-response curves.

[1] = tested on: animals with a neuropathic injury; experiment: Chung model of neuropathic pain; assay type: in vivo
From the text: FIG. 3 illustrates results from the Chung Model used for measuring neuropathic pain. The single asterisk (*) applies when p is less than 0.05 whereas the double asterisk (**) applies when p is less than 0.01. n=9-10.

animals = experiment: Hargreaves Test (acute thermal pain); assay type: in vivo; conditions: FIG. 2
From the text: FIG. 2 illustrates results from the Hargreaves Test used for measuring acute thermal pain. The single asterisk (*) applies when p is less than 0.05 whereas the double asterisk (**) applies when p is less than 0.01. n=6.

Compound: Cc1nc(-c2ccccc2)c(-c2ccccc2)n1CCCCCCNC(=O)Oc1ccccc1F [Example 1, [6-(2-Methyl-4,5-diphenyl-imidazol-1-yl)-hexyl]-carbamic acid 2-fluoro-phenyl ester]
- reduction of number of paw flinches (rat; 25 mg/kg, i.v., first 10 minutes after administration of formalin): ~40%
- reduction of paw flinches (rat; 25 mg/kg, i.v., following 50 minutes): approximately 30%
- activity in phase I (acute phase) and phase II (chronic phase) of the rat formalin test (rat; FIG. 1): active
- IC50 (human FAAH): < 10 nM
- onset of anti-neuropathic effect ([1]; 20 mg/kg, versus 100 mg/kg gabapentin): earlier onset of action compared to 100 mg/kg gabapentin
- threshold for withdrawal of the injured paw ([1]; light touch stimulus, FIG. 3): increased (toward normal) in a dose-dependent fashion
- latency to paw withdrawal (animals): increased significantly

Compound: Cc1nc(-c2ccccc2)c(-c2ccccc2)n1CCCCCC(C)NC(=O)Oc1ccccc1F (centres unmarked) [Example 71, [1-Methyl-6-(2-methyl-4,5-diphenyl-imidazol-1-yl)-hexyl]-carbamic acid 2-fluoro-phenyl ester]
- IC50 (human FAAH): < 10 nM

Compound: CCC(CCCCCn1c(C)nc(-c2ccccc2)c1-c1ccccc1)NC(=O)Oc1ccccc1F (centres unmarked) [Example 72, [1-Ethyl-6-(2-methyl-4,5-diphenyl-imidazol-1-yl)-hexyl]-carbamic acid 2-fluoro-phenyl ester]
- IC50 (human FAAH): 10 to 100 nM

Compound: Cc1nc(-c2ccccc2)c(-c2ccccc2)n1CCCCCC(NC(=O)Oc1ccccc1F)C(C)C (centres unmarked) [Example 73, [1-Isopropyl-6-(2-methyl-4,5-diphenyl-imidazol-1-yl)-hexyl]-carbamic acid 2-fluoro-phenyl ester]
- IC50 (human FAAH): 100 to 1000 nM

Compound: Cc1nc(-c2ccccc2)c(-c2ccccc2)n1CCCCCC(NC(=O)Oc1ccccc1F)c1ccccc1 (centres unmarked) [Example 74, [6-(2-Methyl-4,5-diphenyl-imidazol-1-yl)-1-phenyl-hexyl]-carbamic acid 2-fluoro-phenyl ester]
- IC50 (human FAAH): 100 to 1000 nM

Reference: patent publication USRE39634E1, “Bisarylimidazoly fatty acid amide hydrolase inhibitors” (Bristol-Myers Squibb Company, priority 2001, dated 2007)
